One block for each compound: values may come before it.
Experiments:
Type in all cases: cell-based
Flt-3 = target: T1, Flt-3 (Homo sapiens, UniProt P36888, cells depend on it, form not given); assay: FLT3 (Cellular Assay), Ba/F3-FLT3-ITD proliferation; conditions: read-out: IC50 for Flt-3
T1 sequence (P36888 1-993): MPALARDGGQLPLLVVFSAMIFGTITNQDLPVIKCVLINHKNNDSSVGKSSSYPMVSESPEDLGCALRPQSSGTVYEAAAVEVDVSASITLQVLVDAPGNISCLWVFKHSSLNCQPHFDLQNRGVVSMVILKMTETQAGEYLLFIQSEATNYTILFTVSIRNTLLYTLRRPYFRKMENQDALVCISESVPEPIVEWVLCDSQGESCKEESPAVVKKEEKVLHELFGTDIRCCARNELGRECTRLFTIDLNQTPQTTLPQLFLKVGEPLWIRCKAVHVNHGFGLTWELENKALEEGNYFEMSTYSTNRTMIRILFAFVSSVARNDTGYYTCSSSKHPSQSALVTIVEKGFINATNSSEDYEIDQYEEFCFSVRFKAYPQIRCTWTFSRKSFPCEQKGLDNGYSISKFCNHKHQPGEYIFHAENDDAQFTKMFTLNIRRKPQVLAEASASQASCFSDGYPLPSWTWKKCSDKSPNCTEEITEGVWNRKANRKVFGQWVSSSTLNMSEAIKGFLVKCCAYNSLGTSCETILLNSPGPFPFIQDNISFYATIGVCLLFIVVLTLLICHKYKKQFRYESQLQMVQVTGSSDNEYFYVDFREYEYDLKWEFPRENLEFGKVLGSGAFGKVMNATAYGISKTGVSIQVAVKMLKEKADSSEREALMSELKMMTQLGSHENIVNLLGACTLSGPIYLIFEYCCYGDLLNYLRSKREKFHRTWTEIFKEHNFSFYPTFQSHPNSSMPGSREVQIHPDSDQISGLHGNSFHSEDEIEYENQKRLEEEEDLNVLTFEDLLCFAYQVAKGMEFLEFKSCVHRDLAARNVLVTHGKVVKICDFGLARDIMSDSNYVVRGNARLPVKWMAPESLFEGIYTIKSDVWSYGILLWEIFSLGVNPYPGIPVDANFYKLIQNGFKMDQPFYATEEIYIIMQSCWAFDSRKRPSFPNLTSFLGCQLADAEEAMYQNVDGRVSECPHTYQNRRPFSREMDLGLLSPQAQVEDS

F317L Bcr-abl = target: T2, F317L Bcr-abl (Homo sapiens, UniProt P00519, F317L); assay: Proliferation of Ba/F3 cells expressing mutant Bcr-abl F317L
T2 construct: expressed in transfected cells; host or cells: Ba/F3 murine pro-B cells; the other entry of the earlier key: BCR (P11274, Breakpoint cluster region protein)
Protocol: (§1) Ba/F3-p210 cells are plated into 96 well TC plates at a density of 15,000 cells per well. 50 μL of two fold serial dilutions of the test compound (Cmax, is […]) are added to each well (STI571 is included as a positive control). After incubating the cells for 48 hours at 37° C., 5% CO2, 15 μL of MTT (Promega) is added to each well and the cells are incubated for an additional 5 hours. The optical density at 570 nm is quantified spectrophotometrically and IC50 values, the concentration of compound required for 50% inhibition, determined from a dose response curve.
(§2) Compounds of the invention are tested for their antiproliferative effect on Ba/F3 cells expressing either wild type or the mutant forms of BCR-Abl (G250E, E255V, T315I, F317L, M351T) that confers resistance or diminished sensitivity to STI571. The antiproliferative effect of these compounds on the mutant-BCR-Abl expressing cells and on the non transformed cells were tested as described above. The IC50 values of the compounds lacking toxicity on the untransformed cells were determined from the dose response curves obtained as describe above.

T315I Bcr-abl = target: T3, T315I Bcr-abl (Homo sapiens, UniProt P00519, T315I); assay: Proliferation of Ba/F3 cells expressing mutant Bcr-abl T315I
T3 construct: expressed in transfected cells; host or cells: Ba/F3 murine pro-B cells; the other entry of the earlier key: BCR (P11274, Breakpoint cluster region protein)
Protocol: as §1, §2

wild type Bcr-abl = target: T4, wild type Bcr-abl (Homo sapiens, UniProt P00519); assay: Proliferation of Ba/F3 cells expressing wild type Bcr-abl
T4 construct: expressed in transfected cells; host or cells: Ba/F3 murine pro-B cells; the other entry of the earlier key: BCR (P11274, Breakpoint cluster region protein)
Protocol: The murine cell line used is the Ba/F3 murine pro-B cell line transformed with BCR-Abl cDNA (Ba/F3-p210). These cells are maintained in RPMI/10% fetal calf serum (RPMI/FCS) supplemented with penicillin 50 μg/mL, streptomycin 50 μg/mL and L-glutamine 200 mM. Untransformed Ba/F3 Ba/F3 cells are similarly maintained with the addition of murine recombinant IL3.
as §1
as §2, with “The antiproliferative effect of these compounds on the mutant-BCR-Abl expressing cells and on the non transformed cells were tested as described above.” left out

M351T Bcr-abl = target: T5, M351T Bcr-abl (Homo sapiens, UniProt P00519, M351T); assay: Proliferation of Ba/F3 cells expressing mutant Bcr-abl M351T
T5 construct: expressed in transfected cells; host or cells: Ba/F3 murine pro-B cells; the other entry of the earlier key: BCR (P11274, Breakpoint cluster region protein)
Protocol: as §1, §2

E255V Bcr-abl = target: T6, E255V Bcr-abl (Homo sapiens, UniProt P00519, E255V); assay: Proliferation of Ba/F3 cells expressing mutant Bcr-abl E255V
T6 construct: expressed in transfected cells; host or cells: Ba/F3 murine pro-B cells; the other entry of the earlier key: BCR (P11274, Breakpoint cluster region protein)
T6 sequence (P00519 229-512 E255V limits assumed): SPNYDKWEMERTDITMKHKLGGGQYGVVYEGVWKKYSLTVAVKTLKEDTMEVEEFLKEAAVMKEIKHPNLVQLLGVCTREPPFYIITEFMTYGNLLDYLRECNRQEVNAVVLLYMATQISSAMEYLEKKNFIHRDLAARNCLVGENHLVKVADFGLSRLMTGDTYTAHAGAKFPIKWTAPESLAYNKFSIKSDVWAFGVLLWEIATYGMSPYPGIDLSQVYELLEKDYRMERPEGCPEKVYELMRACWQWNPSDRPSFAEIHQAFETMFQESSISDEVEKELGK
Protocol: as §1, §2

G250E Bcr-abl = target: T7, G250E Bcr-abl (Homo sapiens, UniProt P00519, G250E); assay: Proliferation of Ba/F3 cells expressing mutant Bcr-abl G250E
T7 construct: expressed in transfected cells; host or cells: Ba/F3 murine pro-B cells; the other entry of the earlier key: BCR (P11274, Breakpoint cluster region protein)
Protocol: as §1, §2

PDGFRβ = target: T8, PDGFRβ (Homo sapiens, UniProt P09619); assay: PDGFRβ (Cellular Assay), Ba/F3-Tel-PDGFRβ proliferation; conditions: read-out: IC50 for PDGFRβ
T8 construct: fused on or other part: P41212 (Transcription factor ETV6)
T8 sequence (P09619 600-962 limits assumed, change not shown): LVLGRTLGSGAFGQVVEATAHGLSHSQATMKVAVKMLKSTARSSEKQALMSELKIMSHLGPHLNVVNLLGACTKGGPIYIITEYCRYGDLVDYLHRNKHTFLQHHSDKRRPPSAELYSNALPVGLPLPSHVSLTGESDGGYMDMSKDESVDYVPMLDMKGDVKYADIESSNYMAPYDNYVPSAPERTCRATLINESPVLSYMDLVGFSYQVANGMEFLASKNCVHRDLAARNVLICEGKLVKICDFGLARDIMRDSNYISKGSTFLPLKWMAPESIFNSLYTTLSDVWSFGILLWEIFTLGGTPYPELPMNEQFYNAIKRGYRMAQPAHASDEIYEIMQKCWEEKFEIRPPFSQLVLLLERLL

GI50 (Flt-3): 41 nM
SMILES: Cc1cn(-c2cc(C(=O)Nc3ccc(C)c(NC(=O)c4cnc(NCCO)s4)c3)cc(C(F)(F)F)c2)cn1 [Compound 5, 2-(2-Hydroxy-ethylamino)-thiazole-5-carboxylic acid {2-methyl-5-[3-(4-methyl-imidazol-1-yl)-5-trifluoromethyl-benzoylamino]-phenyl}-amide]

IC50 (F317L Bcr-abl): 5 nM
IC50 (T315I Bcr-abl): 1270 nM
IC50 (wild type Bcr-abl): 5 nM
IC50 (M351T Bcr-abl): 5 nM
IC50 (E255V Bcr-abl): 12 nM
IC50 (G250E Bcr-abl): 2290 nM
SMILES: CCN1CCN(c2cc(Nc3ncc(C(=O)Nc4cc(NC(=O)c5cccc(C(F)(F)F)c5)ccc4C)s3)nc(C)n2)CC1 [Example 8, 2-[6-(4-ethyl-piperazin-1-yl)-2-methyl-pyrimidin-4-ylamino]-thiazole-5-carboxylic acid [2-methyl-5-(3-trifluoromethyl-benzoylamino)-phenyl]-amide]

GI50 (PDGFRβ): 5 nM
SMILES: Cc1cn(-c2cc(C(=O)Nc3ccc(C)c(NC(=O)c4cnc(Nc5cc(N6CCOCC6)nc(C)n5)s4)c3)cc(C(F)(F)F)c2)cn1 [Example 28, 2-(2-methyl-6-morpholin-4-yl-pyrimidin-4-ylamino)-thiazole-5-carboxylic acid {2-methyl-5-[3-(4-methyl-imidazol-1-yl)-5-trifluoromethyl-benzoylamino]-phenyl}-amide]

IC50 (T315I Bcr-abl): 570 nM
IC50 (wild type Bcr-abl): 8 nM
SMILES: CCN1CCN(c2cc(Nc3ncc(C(=O)Nc4cc(NC(=O)c5cc(-n6cnc(C)c6)cc(C(F)(F)F)c5)ccc4C)s3)nc(C)n2)CC1 [Example 29, 2-[6-(4-ethyl-piperazin-1-yl)-2-methyl-pyrimidin-4-ylamino]-thiazole-5-carboxylic acid {2-methyl-5-[3-(4-methyl-imidazol-1-yl)-5-trifluoromethyl-benzoylamino]-phenyl}-amide]

Reference: US20090105250A1, “COMPOUNDS AND COMPOSITIONS AS PROTEIN KINASE INHIBITORS” (IRM LLC, priority 2005, published 2009)
